{
  "source": "BindingDB's records for doi:10.1002/cbic.201300347",
  "about": "(Fondazione Istituto Italiano Di Tecnologia, 2013)",
  "note": "Structures can show the parent of a compound that is named as a salt.",
  "data": [
    {"molecular_target": "T1, Fatty-acid amide hydrolase 1 [33-574] (Rattus norvegicus, UniProt P97612)", "T1 construct": "33-574", "T1 sequence (P97612 whole entry)": "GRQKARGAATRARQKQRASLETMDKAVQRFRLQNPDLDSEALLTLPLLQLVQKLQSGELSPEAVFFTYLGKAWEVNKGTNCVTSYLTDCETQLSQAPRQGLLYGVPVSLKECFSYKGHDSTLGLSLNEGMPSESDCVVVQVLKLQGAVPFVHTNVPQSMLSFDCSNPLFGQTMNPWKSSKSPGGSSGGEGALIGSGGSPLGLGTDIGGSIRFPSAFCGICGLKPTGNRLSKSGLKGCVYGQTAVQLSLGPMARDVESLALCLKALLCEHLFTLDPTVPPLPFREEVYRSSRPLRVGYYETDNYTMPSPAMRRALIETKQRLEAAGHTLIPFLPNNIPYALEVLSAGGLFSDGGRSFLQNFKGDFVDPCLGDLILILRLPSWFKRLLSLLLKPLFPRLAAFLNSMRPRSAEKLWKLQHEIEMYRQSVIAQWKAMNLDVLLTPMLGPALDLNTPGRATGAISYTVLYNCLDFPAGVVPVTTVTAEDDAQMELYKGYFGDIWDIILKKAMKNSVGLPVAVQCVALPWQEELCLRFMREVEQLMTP", "units": {"IC50": "µM"}, "values": [
      {"compound": "NC(=O)c1cccc(-c2cc(OC(=O)NC3CCCCC3)ccc2C(=O)O)c1", "IC50": 4},
      {"compound": "O=C(n1nc2ccccc2n1)C(F)(F)F", "note": "[1‐(1,2,3‐benzotriazol‐2‐yl)‐2,2,2‐ trifluoroethanone (Hit 14)]", "IC50": 400},
      {"compound": "OC(c1ccc(Cl)cc1)C(F)(F)F", "note": "(stereo unspecified) [1‐(4‐chlorophenyl)‐2,2,2‐trifluoroethanol (Hit 11)]", "IC50": 143},
      {"compound": "O=C(c1ccc(Cl)cc1)C(F)(F)F", "note": "[1‐(4‐chlorophenyl)‐2,2,2‐trifluoroethanone (Hit 3)]", "IC50": 26},
      {"compound": "O=C(O)C1(C(F)(F)F)CCC1", "note": "[1‐(trifluoromethyl)cyclobutane‐1‐carboxylic acid (Hit 9)]", "IC50": 465},
      {"compound": "FC(F)(F)c1ccccc1N1CCNCC1", "note": "[1‐[2‐(trifluoromethyl)phenyl]piperazine hydrochloride (Hit 1)]", "IC50": 4.2},
      {"compound": "O=C(Nc1cnc2[nH]ccc2c1)c1cccc(Cl)c1Cl", "note": "[2,3‐dichloro‐N‐{1H‐pyrrolo[2,3‐b]pyridin‐5‐ yl}benzamide (Compound 2)]", "IC50": 0.095},
      {"compound": "O=C1CCCc2c1cnc1nc(C(F)(F)F)nn21", "note": "[2‐(trifluoromethyl)‐7H,8H,9H‐[1,2,4]triazolo[1,5‐ a]quinazolin‐6‐one (Hit 2)]", "IC50": 3},
      {"compound": "N#CCc1cccc(C(F)(F)F)c1", "note": "[2‐[3‐(trifluoromethyl)phenyl]acetonitrile (Hit 13)]", "IC50": 720},
      {"compound": "CS(=O)(=O)c1ccc(N)c(F)c1", "note": "[2‐fluoro‐4‐methanesulfonylaniline (Hit 4)]", "IC50": 58},
      {"compound": "Cc1ccc(OC(=O)NC2CCCCC2)cc1-c1cccc(C(N)=O)c1", "note": "[3‐(3‐carbamoylphenyl)‐4‐methylphenyl N‐ cyclohexylcarbamate (Compound 1)]", "IC50": 0.06},
      {"compound": "Nc1cccc(C(=O)Nc2cc(=O)n(CC(F)(F)F)[nH]2)c1", "note": "[3‐amino‐N‐[5‐hydroxy‐1‐(2,2,2‐ trifluoroethyl)pyrazol‐3‐yl]benzamide (Hit 18)]", "IC50": 1320},
      {"compound": "O=C(O)c1cc(=O)cc(C(F)(F)F)o1", "note": "[4‐oxo‐6‐(trifluoromethyl)pyran‐2‐carboxylic acid (Hit 10)]", "IC50": 137},
      {"compound": "OC1(C(F)(F)F)CC(c2ccccc2)N=N1", "note": "(stereo unspecified) [5‐phenyl‐3‐(trifluoromethyl)‐2,4‐dihydropyrazol‐3‐ ol (Hit 6)]", "IC50": 32},
      {"compound": "FC(F)(F)c1cc(-c2ccccc2)nc2ncnn12", "note": "[5‐phenyl‐7‐(trifluoromethyl)‐[1,2,4]triazolo[1,5‐ a]pyrimidine (Hit 15)]", "IC50": 110},
      {"compound": "O[C@@H](c1ccccc1)C(F)(F)F", "note": "[(1S)‐2,2,2‐trifluoro‐1‐phenylethanol (Hit 12)]", "IC50": 563},
      {"compound": "Nc1nc(F)nc2c1ncn2C1O[C@H](CO)[C@@H](O)[C@H]1O", "note": "(stereo partly drawn) [(3R,4S,5R)‐2‐(6‐amino‐2‐fluoropurin‐9‐yl)‐5‐ (hydroxymethyl)oxolane‐3,4‐diol (Hit 17)]", "IC50": 1130},
      {"compound": "Oc1cccc(C(F)(F)F)c1", "note": "[M‐trifluoromethylphenol (Hit 5)]", "IC50": 450},
      {"compound": "O=C(O)c1cccnc1Nc1cccc(C(F)(F)F)c1", "note": "[NSC_4488]", "IC50": 162},
      {"compound": "NCc1cccc(C(F)(F)F)c1", "note": "[[3‐(trifluoromethyl)phenyl]methanamine (Hit 8)]", "IC50": 270},
      {"compound": "O=C(O)Cn1ccc(C(F)(F)F)n1", "note": "[[3‐(trifluoromethyl)pyrazol‐1‐yl]acetic acid (Hit 7)]", "IC50": 147}
    ]}
  ]
}
